What was measured:
[1] = system: HeLa cells or neuronal cells; assay: Cell death assay of Example 3 (MNNG, alamarBlue; protection against parthanatos, Table 4); assay type: cell-based; conditions: 1 μM test compound, MNNG-induced cell death, alamarBlue
Outline: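 HeLa or neuronal cells (1×10^4/well) were pretreated 1 h at 37° C with 1 μM compound, exposed to MNNG for 15 min, washed, then re-incubated 18 h with 1 μM compound. Viability was read by alamarBlue fluorescence (ex 560/em 590 nm). Cell death was expressed relative to control wells.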

MIF = target: T1, MIF (Homo sapiens, UniProt P14174); assay: Nuclease assay of Example 3 (MIF inhibitory activity, Table 4); assay type: biochemical; parameters: (%) inhibition of MIF nuclease activity: concentration or dose not given beside the values; conditions: nuclease assay of Example 3
T1 sequence (P14174 1-115): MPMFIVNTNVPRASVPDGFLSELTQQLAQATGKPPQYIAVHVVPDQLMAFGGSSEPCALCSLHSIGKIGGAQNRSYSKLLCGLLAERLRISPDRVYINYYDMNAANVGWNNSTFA
Outline: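 Human genomic DNA (200 ng), pcDNA (200 ng) or PS^30-type substrates (1 μM) were incubated with MIF (0.25-8 μM final) in 10 mM Tris-HCl pH 7.0, 10 mM MgCl2, 1 mM DTT at 37 °C for 1 h (pcDNA, small substrates) or 4 h (genomic DNA). Cleavage was assessed by agarose or PAGE electrophoresis with EtBr staining and chemiluminescent detection of biotin-labelled DNA.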

| Structure (SMILES) | (%) inhibition of cell death [1] | (%) inhibition of MIF nuclease activity (MIF) |
| --- | --- | --- |
| COc1ccc(CC[C@H]2OC(=O)[C@@H]3CCCCN3C(=O)C(=O)C(C)(C)COC(=O)C=CCCN(C)C(=O)[C@H](C)NC(=O)[C@H](Cc3ccccc3)N(C)C(=O)[C@@H](C)NC(=O)CN(C)C(=O)COc3cccc2c3)cc1OC [compound 62] | 53.7% | 13.1% |
| CCC[C@@H]1NC(=O)[C@H](Cc2ccccc2)N(C)C(=O)[C@@H](C)NC(=O)CN(C)C(=O)COc2cccc(c2)[C@@H](CCc2ccc(OC)c(OC)c2)OC(=O)[C@@H]2CCCCN2C(=O)C(=O)C(C)(C)COC(=O)C=CCCN(C)C1=O [compound 64] | 52.3% | 27.2% |
| COCC[C@@H]1NC(=O)[C@H](Cc2ccccc2)N(C)C(=O)[C@@H](C)NC(=O)CN(C)C(=O)COc2cccc(c2)[C@@H](CCc2ccc(OC)c(OC)c2)OC(=O)[C@@H]2CCCCN2C(=O)C(=O)C(C)(C)COC(=O)C=CCCN(C)C1=O [compound 65] | 54.4% | 20.1% |
| COc1ccc(CC[C@H]2OC(=O)[C@@H]3CCCCN3C(=O)C(=O)C(C)(C)COC(=O)C=CCCN(C)C(=O)[C@H](CC(C)C)NC(=O)[C@H](Cc3ccccc3)N(C)C(=O)[C@@H](C)NC(=O)CN(C)C(=O)COc3cccc2c3)cc1OC [compound 66] | 71.4% | 67.0% |
| COc1ccc(CC[C@H]2OC(=O)[C@@H]3CCCCN3C(=O)C(=O)C(C)(C)COC(=O)C=CCCN(C)C(=O)[C@@H](CC(C)C)NC(=O)[C@H](Cc3ccccc3)N(C)C(=O)[C@@H](C)NC(=O)CN(C)C(=O)COc3cccc2c3)cc1OC [compound 67] | 73.7% | 76.3% |
| COc1ccc(CC[C@H]2OC(=O)[C@@H]3CCCCN3C(=O)C(=O)C(C)(C)COC(=O)C=CCCN(C)C(=O)[C@H](Cc3ccccc3)NC(=O)[C@H](Cc3ccccc3)N(C)C(=O)[C@@H](C)NC(=O)CN(C)C(=O)COc3cccc2c3)cc1OC [compound 68] | 58.0% | 44.0% |
| COc1ccc(CC[C@H]2OC(=O)[C@@H]3CCCCN3C(=O)C(=O)C(C)(C)COC(=O)C=CCCN(C)C(=O)[C@@H](Cc3ccccc3)NC(=O)[C@H](Cc3ccccc3)N(C)C(=O)[C@@H](C)NC(=O)CN(C)C(=O)COc3cccc2c3)cc1OC [compound 69] | 55.7% | 20.7% |
| COc1ccc(CC[C@H]2OC(=O)[C@@H]3CCCCN3C(=O)C(=O)C(C)(C)COC(=O)C=CCCN(C)C(=O)[C@H](Cc3ccc(F)cc3)NC(=O)[C@H](Cc3ccccc3)N(C)C(=O)[C@@H](C)NC(=O)CN(C)C(=O)COc3cccc2c3)cc1OC [compound 70] | 53.8% | 25.2% |
| COc1ccc(CC[C@H]2OC(=O)[C@@H]3CCCCN3C(=O)C(=O)C(C)(C)COC(=O)C=CCCN(C)C(=O)[C@@H]3CCCN3C(=O)[C@H](Cc3ccccc3)N(C)C(=O)[C@@H](C)NC(=O)CN(C)C(=O)COc3cccc2c3)cc1OC [compound 71] | 57.0% | 25.3% |
| COc1ccc(CC[C@H]2OC(=O)[C@@H]3CCCCN3C(=O)C(=O)C(C)(C)COC(=O)C=CCCN(C)C(=O)[C@H](CC3CCCCC3)NC(=O)[C@H](Cc3ccccc3)N(C)C(=O)[C@@H](C)NC(=O)CN(C)C(=O)COc3cccc2c3)cc1OC [compound 72] | 55.3% | 21.2% |
| COc1ccc(CC[C@H]2OC(=O)[C@@H]3CCCCN3C(=O)C(=O)C(C)(C)COC(=O)C=CCCN(C)C(=O)[C@H](Cc3ccc4ccccc4c3)NC(=O)[C@H](Cc3ccccc3)N(C)C(=O)[C@@H](C)NC(=O)CN(C)C(=O)COc3cccc2c3)cc1OC [compound 73] | 53.0% | 40.2% |
| COc1ccc(CC[C@H]2OC(=O)[C@@H]3CCCCN3C(=O)C(=O)C(C)(C)COC(=O)C=CCCN(C)C(=O)[C@H](C(C)C)NC(=O)[C@H](Cc3ccccc3)N(C)C(=O)[C@@H](C)NC(=O)CN(C)C(=O)COc3cccc2c3)cc1OC [compound 74] | 52.6% | 31.5% |
| COc1ccc(CC[C@H]2OC(=O)[C@@H]3CCCCN3C(=O)C(=O)C(C)(C)COC(=O)C=CCCN(C)C(=O)[C@H](c3ccccc3)NC(=O)[C@H](Cc3ccccc3)N(C)C(=O)[C@@H](C)NC(=O)CN(C)C(=O)COc3cccc2c3)cc1OC [compound 75] | 52.8% | 34.9% |
| COc1ccc(CC[C@H]2OC(=O)[C@@H]3CCCCN3C(=O)C(=O)C(C)(C)COC(=O)C=CCCN(C)C(=O)[C@@H](C)NC(=O)[C@H](C(C)C)N(C)C(=O)[C@@H](Cc3ccccc3)NC(=O)[C@H](CC(C)C)N(C)C(=O)CCC(=O)Nc3cccc2c3)cc1OC [compound 78] | 44.7% | 9.0% |
| CCC[C@@H]1NC(=O)[C@H](C(C)C)N(C)C(=O)[C@@H](Cc2ccccc2)NC(=O)[C@H](CC(C)C)N(C)C(=O)CCC(=O)Nc2cccc(c2)[C@@H](CCc2ccc(OC)c(OC)c2)OC(=O)[C@@H]2CCCCN2C(=O)C(=O)C(C)(C)COC(=O)C=CCCN(C)C1=O [compound 79] | 43.4% | 6.7% |
| COCC[C@@H]1NC(=O)[C@H](C(C)C)N(C)C(=O)[C@@H](Cc2ccccc2)NC(=O)[C@H](CC(C)C)N(C)C(=O)CCC(=O)Nc2cccc(c2)[C@@H](CCc2ccc(OC)c(OC)c2)OC(=O)[C@@H]2CCCCN2C(=O)C(=O)C(C)(C)COC(=O)C=CCCN(C)C1=O [compound 80] | 49.5% | 10.3% |
| COc1ccc(CC[C@H]2OC(=O)[C@@H]3CCCCN3C(=O)C(=O)C(C)(C)COC(=O)C=CCCN(C)C(=O)[C@H](CC(C)C)NC(=O)[C@H](C(C)C)N(C)C(=O)[C@@H](Cc3ccccc3)NC(=O)[C@H](CC(C)C)N(C)C(=O)CCC(=O)Nc3cccc2c3)cc1OC [compound 81] | 49.8% | 12.3% |
| COc1ccc(CC[C@H]2OC(=O)[C@@H]3CCCCN3C(=O)C(=O)C(C)(C)COC(=O)C=CCCN(C)C(=O)[C@@H](CC(C)C)NC(=O)[C@H](C(C)C)N(C)C(=O)[C@@H](Cc3ccccc3)NC(=O)[C@H](CC(C)C)N(C)C(=O)CCC(=O)Nc3cccc2c3)cc1OC [compound 82] | 47.0% | 8.5% |
| COc1ccc(CC[C@H]2OC(=O)[C@@H]3CCCCN3C(=O)C(=O)C(C)(C)COC(=O)C=CCCN(C)C(=O)[C@H](Cc3ccccc3)NC(=O)[C@H](C(C)C)N(C)C(=O)[C@@H](Cc3ccccc3)NC(=O)[C@H](CC(C)C)N(C)C(=O)CCC(=O)Nc3cccc2c3)cc1OC [compound 83] | 49.8% | 12.0% |
| COc1ccc(CC[C@H]2OC(=O)[C@@H]3CCCCN3C(=O)C(=O)C(C)(C)COC(=O)C=CCCN(C)C(=O)[C@@H](Cc3ccccc3)NC(=O)[C@H](C(C)C)N(C)C(=O)[C@@H](Cc3ccccc3)NC(=O)[C@H](CC(C)C)N(C)C(=O)CCC(=O)Nc3cccc2c3)cc1OC [compound 84] | 51.0% | 10.8% |
| COc1ccc(CC[C@H]2OC(=O)[C@@H]3CCCCN3C(=O)C(=O)C(C)(C)COC(=O)C=CCCN(C)C(=O)[C@H](Cc3ccc(F)cc3)NC(=O)[C@H](C(C)C)N(C)C(=O)[C@@H](Cc3ccccc3)NC(=O)[C@H](CC(C)C)N(C)C(=O)CCC(=O)Nc3cccc2c3)cc1OC [compound 85] | 49.4% | 10.7% |
| COc1ccc(CC[C@H]2OC(=O)[C@@H]3CCCCN3C(=O)C(=O)C(C)(C)COC(=O)C=CCCN(C)C(=O)[C@@H]3CCCN3C(=O)[C@H](C(C)C)N(C)C(=O)[C@@H](Cc3ccccc3)NC(=O)[C@H](CC(C)C)N(C)C(=O)CCC(=O)Nc3cccc2c3)cc1OC [compound 86] | 53.0% | 22.7% |
| COc1ccc(CC[C@H]2OC(=O)[C@@H]3CCCCN3C(=O)C(=O)C(C)(C)COC(=O)C=CCCN(C)C(=O)[C@H](CC3CCCCC3)NC(=O)[C@H](C(C)C)N(C)C(=O)[C@@H](Cc3ccccc3)NC(=O)[C@H](CC(C)C)N(C)C(=O)CCC(=O)Nc3cccc2c3)cc1OC [compound 87] | 51.3% | 17.1% |
| COc1ccc(CC[C@H]2OC(=O)[C@@H]3CCCCN3C(=O)C(=O)C(C)(C)COC(=O)C=CCCN(C)C(=O)[C@H](Cc3ccc4ccccc4c3)NC(=O)[C@H](C(C)C)N(C)C(=O)[C@@H](Cc3ccccc3)NC(=O)[C@H](CC(C)C)N(C)C(=O)CCC(=O)Nc3cccc2c3)cc1OC [compound 88] | 52.7% | 21.3% |
